Results on six compounds are retold here after patent publication US11390543B2, “Sterilization method” (NEWSOUTH INNOVATIONS PTY LIMITED, priority 2017, dated 2022).

SMILES strings stand for the structures. Where “and” joins values, the source holds several entries; their conditions need not be identical. Equal values may be shown once. Read-outs that look alike come from different tables or passages of the source.

The conditions of series [1]: cited from earlier work.
Series [2] can be described thus: pH of the solution measured during bubbling experiments. It counts as physicochemical. Conditions: for pH: […] NaCl. As for the experimental part: The solubility at 52° C. (for viruses) and 43° C. (for E. coli) of the different gases used were obtained from literature values (http://www.engineeringtoolbox.com). The pH values were measured during the experiments and the Zeta potential values were measured during the experiments at a virus concentration of 10^8 per ml and E. coli concentration of 10^7 per ml.

For series [3], the system named is MS2 bacteriophage (ATCC 15597-B1). As to the kind of experiment: MS2 virus inactivation by bubbling gas through 0.17 M NaCl solution in bubble column evaporator, double layer plaque assay. It counts as cell-based. Conditions: for MS2 virus inactivation, log reduction: inlet gas temperature 200° C., after 37.5 min; for MS2 virus log reduction: as time approached 10 mins. The protocol: MS2 bacteriophage (ATCC 15597-B1) was chosen as the model virus to evaluate the efficiency of methods of inactivation of viruses. MS2 is usually quantified by counting infectious units via a standard plaque assay that is commonly used for detection of MS2 in treated drinking water and waste-water.
Analysis of virus inactivation was carried out using the optimized Double Layer Plaque Assay technique described in Cormier et al, that detects only infectious viruses by using E. coli as their host.
A specific optimized Double Layer Plaque Assay technique as described in Cormier et al was used to assess the concentration of active MS2 viruses. This plaque assay method is commonly used for detection of MS2 in treated drinking water, wastewater and marine water. The water quality is assessed based on the ability of bacteriophages to kill the host bacteria and allow phages to propagate in a confluent lawn of bacterial host cells immobilized in a layer of agar.
A freeze-dried vial of MS2 bacteriophage was acquired from the American Type Culture Collection. Bacteriophage MS2 (ATCC 15597-B1) was replicated using Escherichia coli C-3000 (ATCC 15597) according to the International Standard ISO 10705-1 [31] and the Ultraviolet disinfection guidance manual of the United States Environmental Protection Agency. The zeta-potential of the MS2 viruses in 0.17 M NaCl solution with different gas bubbles was measured using a Malvern Zetasizer nano series instrument.
The gases were pumped through the electrical heater that maintained the gas temperature just above the sinter surface at the base of the bubble column evaporator at a particular temperature, depending on the experiment. The base of the bubble column evaporator was fitted with a 40-100 μm pore size glass sinter (type 2) of 135 mm diameter.
Once the aqueous solution was poured into the column, the temperature of the solution was measured with a thermocouple in the centre of the column solution. The gas was then passed through the sinter into the 300 ml solution to inactivate MS2 viruses or E. coli (in separate experiments). […]
Further experiments were also performed using MS2 virus in a 0.17 M NaCl solution (initial temperature of about 22° C.) in the BCE, with CO2 gas at different inlet temperatures (205° C., 150° C., 100° C., 11° C. and 20° C.) and with CO2 gas having an inlet temperature of 22° C. at different flow rates (27 l/min and 20 l/min).
Once the solutions with known concentration of coliphage and E. coli were prepared, experiments were conducted to study the inactivation of the coliphage with different gases and inlet gas temperatures. 1.3 ml samples were collected from 10 to 15 mm above the central area of the sinter every 6 minutes during 36 minutes for the virus experiments and every 2 min for the E. coli experiments. 0.07 ml of each sample was spotted in triplicate following the double layer plaque assay technique.
Plaque counts were performed for all 18-21 plates of each of the experiments. The mean and the standard deviation of each triplicated sample using a virus or bacteria survival factor: Log10(PFU/PFU0), where PFU0 is the initial number of PFU per sample and PFU is the PFU per sample after an exposure time in minutes. When plotted, a second order polynomial distribution was applied to fit the survival curves.

In series [4] the test system is Escherichia coli C-3000 (ATCC15597). Description: E. coli inactivation by bubbling gas through 0.17 M NaCl solution in bubble column evaporator, plaque assay. In kind it is cell-based.
Series [5] relates to E. coli. The settings on record: pH 4.2, stirred beaker, […] NaCl, 22° C., no bubbling. As for the experimental part: (§1) To evaluate the effect of solution pH on the inactivation of MS2 bacteriophage and E. coli experiments, comparison tests using 0.17 M NaCl solution at pH 4.1, were carried out in a separate beaker, in a water bath. During these experiments, samples were regularly taken out from the beaker and analysed as before.
(§2) To determine if the reduction in pH, due to dissolved CO2 (equations 1, 2, 3 and 4), was related to its disinfectant effects, two experiments with carbonic acid (H2CO3) at pH 4.2 were conducted in a continuous stirred beaker, one for viruses and another one for bacteria.
(§3) Carbonic acid (H2CO3) was produced by bubbling 27 l/min. of pure CO2 through the 0.17 M NaCl solution during 10 minutes at 22° C. […] Some authors describe a small, low pH inactivation effect on microbial cells, since membranes stop protons from penetration but low pH makes membrane more permeable to other substances like CO2 due to the chemical modification on the phospholipid bilayer of membranes.

In another series the test system is MS2 bacteriophage. Conditions: pH 4.2, stirred beaker, […] NaCl, 22° C., no bubbling. As for the experimental part:
as §1, §2, §3

In series [6] the test system is E. coli. Conditions: cited from earlier work.
Another series relates to MS2 virus. The settings on record: 1 to 2 M of NaCl; cited from earlier work.
[7] abbreviates: in water at 43° C., 1 atm (E. coli section).
The mark [8] stands for this setting: in water at 52° C., 1 atm (virus section).
Setting [9] is: E. coli experiments, gases at 150° C. (combustion gas 58° C.).
[10] abbreviates: MS2 experiments, gases at 200° C. (combustion gas 60° C.).
The mark [11] stands for this setting: inlet gas temperature 150° C., after 10 min.

As to `[Ar]` [Argon], the Solubility in series [1] (setting [7]) is 0.040 Grams dissolved in 1 Kg of wat; in series [1] (setting [8]) it was 0.035 Grams dissolved in 1 Kg of wat. Besides, the pH in series [2] (setting [9]) and in series [2] (setting [10]) was 6.0 in each case. Also, the “MS2 virus inactivation, log reduction” value in series [3] amounted to 1.5 log. The “E. coli inactivation, log reduction” value in series [4] (setting [11]) stood at 0.40 log.

Take `O=C=O` [Carbon dioxide]: the Solubility was 0.950 Grams dissolved in 1 Kg of wat in series [1] (setting [7]) and 0.800 Grams dissolved in 1 Kg of wat in series [1] (setting [8]). Besides, the pH in series [2] (setting [9]) and in series [2] (setting [10]) was 4.0 each time. Besides, the “pH of the water when using CO2 gas in the bubble column” value in series [2] (dropped from 5.9 in less than 45 seconds) is given as 4.2. Also, the MS2 virus log-reduction is given as 2.3 log in series [3] (150° C. inlet CO2 temperature, after 7 min); 0.1 log in series [3] (CO2 11° C. inlet temperature, 9° C. column temperature, after 6.5 minutes); 0.35 log in series [3] (CO2 at 22° C., 20 l/min, after 2 minutes); 0.62 log in series [3] (CO2 at 22° C., 27 l/min, after 2 minutes); 3 log in series [3] (CO2 at 200° C., after 3 min). The “MS2 virus inactivation rate” value in series [3] (CO2 (100%) at 200° C., in 3.5 minutes) amounted to 2.7 log. Besides, the “MS2 virus log reduction” value was “about 1 log” in series [3] (CO2 at 22° C., 20 l/min) and “about 1 log” in series [3] (CO2 at 22° C., 27 l/min). In series [3] (CO2 at 200° C., within 5 min), the “MS2 virus log inactivation” value is given as 2.0 log. The MS2 virus reduction in series [3] (CO2 bubbles at room temperature, 10 min) was found to be 1 log. Besides, in series [4] (inlet gas temperature 150° C., after 10 min, listed as CO2), the “E. coli inactivation, log reduction” value was 2.84 log and 2.6 log.

As to `O=C(O)O` [Carbonic acid (H2CO3), Carbonic acid], in the series with E. coli [5], the “E. coli log removal” value was determined as 0.08 log. This compound showed a log virus reduction with MS2 bacteriophage of 0.002 log.

Turning to `[Cl-].[Na+]` [NaCl], in the series on E. coli [6], the “inactivation of E. coli by NaCl solutions” value is reported as “do not inactivate E. coli”. Besides, the “stability of MS2 virus in the presence of NaCl” value in the series on MS2 virus is listed as “stable”.

Take `N#N` [Nitrogen]: in series [3], the “MS2 virus inactivation, log reduction” value is 1.5 log. Also, the “E. coli inactivation, log reduction” value in series [4] (setting [11]) is 1.74 log and 1.5 log.

For the compound `O=O` [Oxygen], the Solubility is 0.030 Grams dissolved in 1 Kg of wat in series [1] (setting [7]) and 0.027 Grams dissolved in 1 Kg of wat in series [1] (setting [8]). Further, the pH was determined as 6.1 in series [2] (setting [9]) and 6 in series [2] (setting [10]). Further, in series [3], the “MS2 virus inactivation, log reduction” value amounted to 1.5 log. In series [4] (oxygen at 150° C. inlet gas temperature as printed), this compound registered an E. coli reduction of 0.65 log. Besides, in series [4] (oxygen bubbles at 150° C., after 3.5 minutes), the “E. coli inactivation, log reduction” value came out at 2.90 log.
